Measured values from US8377691B2 (priority 2006, dated 2013).
pIC50: −log10 of the molar value. “Also recorded” adds a separate entry of the source. Read-outs that look alike come from different tables or passages of the source.

Legend:
[1] = type: biochemical; conditions: for response to 30 mM K2SO4 after prior disruption of the lipoparticle structure: gramicidin (1 uM) or melittin (5 uM)
[2] = target: Shaker (Drosophila melanogaster, UniProt P08510); conditions: cited from earlier work
[3] = target: T1, Shaker(Δ6-46)T449V (Drosophila melanogaster, UniProt P08510, DEL6-46/T449V); type: biochemical; conditions: for Shaker activity: iberiotoxin (10 uM), margatoxin (10 uM); for lipoparticle Shaker activity: pre-treated with 10 nM toxin, duplicate experiments
T1 construct: made in house; host or cells: 293 / HEK-293 cells co-transfected with MLV Gag
T1 sequence (P08510 with tags, fused parts or gaps DEL6-46/T449V): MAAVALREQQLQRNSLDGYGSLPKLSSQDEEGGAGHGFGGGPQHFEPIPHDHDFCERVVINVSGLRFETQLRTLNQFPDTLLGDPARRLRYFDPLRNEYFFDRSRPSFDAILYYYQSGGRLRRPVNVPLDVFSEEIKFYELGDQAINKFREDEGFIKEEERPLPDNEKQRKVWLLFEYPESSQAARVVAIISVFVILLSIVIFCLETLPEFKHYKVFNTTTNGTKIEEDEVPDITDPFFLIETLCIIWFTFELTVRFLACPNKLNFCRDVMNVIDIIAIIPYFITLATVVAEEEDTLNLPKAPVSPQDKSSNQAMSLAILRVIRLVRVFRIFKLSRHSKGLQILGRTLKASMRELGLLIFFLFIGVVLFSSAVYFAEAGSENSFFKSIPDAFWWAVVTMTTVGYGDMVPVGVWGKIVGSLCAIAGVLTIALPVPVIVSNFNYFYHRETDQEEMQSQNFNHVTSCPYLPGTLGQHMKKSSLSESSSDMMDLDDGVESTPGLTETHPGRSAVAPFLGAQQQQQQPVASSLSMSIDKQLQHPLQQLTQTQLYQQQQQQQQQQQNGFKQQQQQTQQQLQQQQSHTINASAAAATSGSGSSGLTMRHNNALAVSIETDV

[4] = target: T2, Shaker T449K mutant (Drosophila melanogaster, UniProt P08510, T449K); type: biochemical; conditions: 10 nM CHTX pre-treatment
T2 construct: made in house
T2 sequence (P08510 whole entry T449K): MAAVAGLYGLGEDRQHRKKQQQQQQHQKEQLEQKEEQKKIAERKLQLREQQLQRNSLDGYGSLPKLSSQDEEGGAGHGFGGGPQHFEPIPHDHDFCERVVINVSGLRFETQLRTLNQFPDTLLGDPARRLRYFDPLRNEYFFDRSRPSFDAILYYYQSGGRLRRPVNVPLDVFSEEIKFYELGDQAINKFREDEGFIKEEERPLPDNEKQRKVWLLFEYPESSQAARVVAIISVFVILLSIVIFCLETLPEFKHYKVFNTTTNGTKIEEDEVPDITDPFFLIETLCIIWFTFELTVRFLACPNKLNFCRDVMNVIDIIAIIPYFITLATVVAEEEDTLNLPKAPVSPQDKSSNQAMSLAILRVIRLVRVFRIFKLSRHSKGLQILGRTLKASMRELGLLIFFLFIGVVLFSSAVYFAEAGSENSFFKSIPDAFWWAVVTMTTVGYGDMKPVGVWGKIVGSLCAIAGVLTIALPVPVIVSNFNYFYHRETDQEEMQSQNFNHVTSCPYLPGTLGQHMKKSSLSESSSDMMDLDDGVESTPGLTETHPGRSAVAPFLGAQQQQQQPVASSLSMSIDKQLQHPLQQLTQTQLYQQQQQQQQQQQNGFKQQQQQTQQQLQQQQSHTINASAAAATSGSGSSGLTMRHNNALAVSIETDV

[5] = target: A/M2/HK156/94 (Influenza A virus, UniProt O70632); assay: biochemical; type: biochemical; conditions: for H+ transport across VLP membranes (fluorescence): pH 4.5
A/M2/HK156/94, sequence (O70632 whole entry, looked up): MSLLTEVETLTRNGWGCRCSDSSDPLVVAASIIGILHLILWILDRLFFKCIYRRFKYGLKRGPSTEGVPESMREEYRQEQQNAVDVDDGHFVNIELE

[6] = system: M2; conditions: cited from earlier work
[7] = target: A/M2 Udorn72 (Influenza A virus, UniProt P0DOF5); type: biochemical; conditions: pH 4.5
A/M2 Udorn72, sequence (P0DOF5 whole entry, looked up): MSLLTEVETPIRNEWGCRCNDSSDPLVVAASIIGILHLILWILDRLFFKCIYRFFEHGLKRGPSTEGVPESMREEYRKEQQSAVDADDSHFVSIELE

[8] = target: T3, human KCNQ2/3 channel (Homo sapiens, UniProt O43525+O43526); type: biochemical
T3 construct: made in house
T3 sequence (O43526 whole entry): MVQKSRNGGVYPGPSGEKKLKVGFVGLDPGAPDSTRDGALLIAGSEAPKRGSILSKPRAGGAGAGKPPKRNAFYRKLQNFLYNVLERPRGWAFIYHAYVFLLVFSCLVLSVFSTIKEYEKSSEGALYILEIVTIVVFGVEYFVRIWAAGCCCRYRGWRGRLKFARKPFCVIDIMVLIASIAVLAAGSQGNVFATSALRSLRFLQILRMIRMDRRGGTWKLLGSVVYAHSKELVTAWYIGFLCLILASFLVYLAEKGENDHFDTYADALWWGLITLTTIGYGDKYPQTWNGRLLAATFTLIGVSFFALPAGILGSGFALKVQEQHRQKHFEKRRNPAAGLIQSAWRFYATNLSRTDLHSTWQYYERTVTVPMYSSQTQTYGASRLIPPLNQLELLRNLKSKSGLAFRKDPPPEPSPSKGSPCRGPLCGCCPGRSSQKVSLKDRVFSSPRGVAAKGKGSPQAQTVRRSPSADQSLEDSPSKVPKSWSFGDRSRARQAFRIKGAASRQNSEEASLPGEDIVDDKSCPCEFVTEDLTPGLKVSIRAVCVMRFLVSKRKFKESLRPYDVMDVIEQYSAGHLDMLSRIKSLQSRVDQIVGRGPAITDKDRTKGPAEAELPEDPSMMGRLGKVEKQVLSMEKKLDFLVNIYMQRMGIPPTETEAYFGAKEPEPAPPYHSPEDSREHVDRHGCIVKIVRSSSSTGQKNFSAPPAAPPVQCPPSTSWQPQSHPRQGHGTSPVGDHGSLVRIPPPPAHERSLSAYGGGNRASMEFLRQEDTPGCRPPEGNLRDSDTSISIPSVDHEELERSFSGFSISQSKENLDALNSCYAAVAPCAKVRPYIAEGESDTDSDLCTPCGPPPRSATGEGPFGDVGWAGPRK
T3 sequence (O43525 whole entry): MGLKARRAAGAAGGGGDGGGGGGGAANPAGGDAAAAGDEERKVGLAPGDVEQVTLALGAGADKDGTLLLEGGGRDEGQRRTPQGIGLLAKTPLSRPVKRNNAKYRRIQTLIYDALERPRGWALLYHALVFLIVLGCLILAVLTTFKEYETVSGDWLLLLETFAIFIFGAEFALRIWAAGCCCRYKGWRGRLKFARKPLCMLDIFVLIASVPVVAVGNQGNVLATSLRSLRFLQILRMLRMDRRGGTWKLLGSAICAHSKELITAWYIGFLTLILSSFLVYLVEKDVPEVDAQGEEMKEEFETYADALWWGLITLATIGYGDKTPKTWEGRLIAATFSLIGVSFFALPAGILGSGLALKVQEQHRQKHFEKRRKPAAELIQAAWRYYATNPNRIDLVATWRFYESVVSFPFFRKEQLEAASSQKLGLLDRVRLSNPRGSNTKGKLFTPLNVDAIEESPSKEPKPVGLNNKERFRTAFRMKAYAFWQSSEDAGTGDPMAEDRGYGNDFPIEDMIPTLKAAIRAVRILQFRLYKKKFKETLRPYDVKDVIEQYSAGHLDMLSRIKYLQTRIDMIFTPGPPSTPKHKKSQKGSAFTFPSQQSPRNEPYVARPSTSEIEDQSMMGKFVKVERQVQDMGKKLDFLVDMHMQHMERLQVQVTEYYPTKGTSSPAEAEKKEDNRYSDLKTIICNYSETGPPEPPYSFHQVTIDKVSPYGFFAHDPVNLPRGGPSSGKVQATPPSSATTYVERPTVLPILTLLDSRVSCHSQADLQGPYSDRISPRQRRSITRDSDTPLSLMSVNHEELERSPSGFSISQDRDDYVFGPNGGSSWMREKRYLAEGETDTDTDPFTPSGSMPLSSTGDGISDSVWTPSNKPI

[9] = target: 5HT3a cation channel (Homo sapiens, UniProt P46098); type: biochemical
5HT3a cation channel, sequence (P46098 24-478): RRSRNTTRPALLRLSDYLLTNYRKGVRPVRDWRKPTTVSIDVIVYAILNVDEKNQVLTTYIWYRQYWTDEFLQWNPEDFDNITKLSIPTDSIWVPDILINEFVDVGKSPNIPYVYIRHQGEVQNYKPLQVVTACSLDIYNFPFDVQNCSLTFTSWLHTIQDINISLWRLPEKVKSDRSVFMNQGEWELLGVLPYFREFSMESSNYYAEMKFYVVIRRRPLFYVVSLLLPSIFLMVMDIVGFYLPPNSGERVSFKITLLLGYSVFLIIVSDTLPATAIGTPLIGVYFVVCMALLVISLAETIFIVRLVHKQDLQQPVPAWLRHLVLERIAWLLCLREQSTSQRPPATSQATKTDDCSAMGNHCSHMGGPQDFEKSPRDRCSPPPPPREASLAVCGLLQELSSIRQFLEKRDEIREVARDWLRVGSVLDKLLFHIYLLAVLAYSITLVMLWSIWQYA

[10] = target: M2 viral ion channel, Influenza A (Udorn/72) virions (Influenza A virus, UniProt P0DOF5); type: biochemical
M2 viral ion channel, Influenza A (Udorn/72) virions, sequence (P0DOF5 whole entry, looked up): as the sequence (P0DOF5 whole entry, looked up) above

Shaker, sequence (P08510 whole entry): as the sequence (P08510 whole entry T449K) above, with K449T counted along it

For gramicidin, the “response to 30 mM K2SO4 after prior disruption of the lipoparticle structure” value [1] was “eliminated the response”.
In the case of charybdotoxin [CHTX], the “CHTX inhibition of Shaker in cells reported in the literature” value [2] is listed as roughly 3.6 nM, the “Shaker conductance of K+ across lipoparticle membranes” value ([3]; 10 nM CHTX pre-incubation, 30 mM K2SO4) is listed as “completely inhibited” and the “inhibition of the fluorescent signal over a concentration range” value ([3]; CHTX 100 pM to 10 nM, 10 ug Shaker plasmid) is listed as “concentration-dependent inhibition”. For the same compound, the “low concentration at which inhibition of membrane depolarization was evident” value ([3]; lipoparticles produced using 10 ug Shaker plasmid, 30 mM K2SO4) was 0.1 nM, the “fluorescent signal on K+ addition” value [4] was “capable of inhibiting the fluorescent signal; also recorded: inhibition” and the “effect of channel inhibitor on valinomycin-mediated K+ movement (specificity control)” value ([1]; null-lipoparticles pre-treated with 1 uM valinomycin, CHTX up to 10 nM, tubocurarine) was “did not influence; also recorded: had no effect”.
In the case of `CC[C@H](C)[C@H](NC(=O)CN)C(=O)NCC(=O)N[C@@H](C)C(=O)N[C@H](C(=O)N[C@@H](CC(C)C)C(=O)N[C@@H](CCCCN)C(=O)N[C@H](C(=O)N[C@@H](CC(C)C)C(=O)N[C@H](C(=O)N[C@H](C(=O)NCC(=O)N[C@@H](CC(C)C)C(=O)N1CCC[C@H]1C(=O)N[C@@H](C)C(=O)N[C@@H](CC(C)C)C(=O)N[C@H](C(=O)N[C@@H](CO)C(=O)N[C@@H](Cc1c[nH]c2ccccc12)C(=O)N[C@H](C(=O)N[C@@H](CCCCN)C(=O)N[C@@H](CCCNC(=N)N)C(=O)N[C@@H](CCCCN)C(=O)N[C@@H](CCCNC(=N)N)C(=O)N[C@@H](CCC(N)=O)C(=O)N[C@@H](CCC(N)=O)C(N)=O)[C@@H](C)CC)[C@@H](C)CC)[C@@H](C)O)[C@@H](C)O)C(C)C)C(C)C` [melittin], the “response to 30 mM K2SO4 after prior disruption of the lipoparticle structure” value [1] was “eliminated the response”.
With `CC(N)C12CC3CC(CC(C3)C1)C2` (stereo not drawn) [rimantadine] the “Hillslope of inhibition curve” value [5] was −1.1, the pIC50 [5] was 6.74 and the “mean change in fluorescence resulting from MES addition” value [5] was −432±167. For the same compound, the “H+ transport across VLP membranes (fluorescence)” value [5] was “abrogated the subsequent movement of H^+”, the “potency relative to amantadine reported in the literature” value ([6]; more potent than amantadine) was “approximately 10 times” and the “H+ transport fluorescence signal” value [7] was “inhibited the fluorescent response; also recorded: abrogated the subsequent movement of H^+; also recorded: completely abrogated”.
For “margatoxin (TIINVKCTSPKQCLPPCKAQFGQSAGAKCMNGKCKCYPH; UniProt P40755 1-39, looked up)”, the Shaker activity [3] was “did not inhibit Shaker activity” and the “lipoparticle Shaker activity” value ([3]; 30 mM K2SO4) was “do not influence”.
With `[Ba+2].[Cl-].[Cl-]` [BaCl2] the “fluorescent signal on K+ addition” value ([8]; 20 mM BaCl2) was “inhibition” and the “fluorescent signal on K+ addition” value ([8]; 120 mM BaCl2 pre-treatment) was “capable of inhibiting the fluorescent signal”.
For `NCCc1c[nH]c2ccc(O)cc12` [serotonin], the “dependence of the fluorescent signal on the ligand” value [9] was “dependent upon the presence; also recorded: omission of the ion channel ligand, serotonin, from the assay mix resulted in no change in fluorescence intensity”.
In the case of “iberiotoxin (QFTDVDCSVSKECWSVCKDLFGVDRGKCMGKKCRCYQ; UniProt P24663 1-37, looked up)”, the Shaker activity [3] was “did not inhibit Shaker activity” and the “lipoparticle Shaker activity” value ([3]; 30 mM K2SO4) was “do not influence”.
In the case of `COc1cc2c3cc1Oc1cc(ccc1O)C[C@@H]1c4c(cc(OC)c(O)c4Oc4ccc(cc4)C[C@@H]3N(C)CC2)CC[N+]1(C)C` [tubocurarine], the “fluorescent signal on Na+ addition” value [9] was “capable of inhibiting the fluorescent signal; also recorded: inhibition”.
For `CC(C)[C@@H]1NC(=O)[C@H](C)OC(=O)[C@@H](C(C)C)NC(=O)[C@@H](C(C)C)OC(=O)[C@H](C(C)C)NC(=O)[C@H](C)OC(=O)[C@@H](C(C)C)NC(=O)[C@@H](C(C)C)OC(=O)[C@H](C(C)C)NC(=O)[C@H](C)OC(=O)[C@@H](C(C)C)NC(=O)[C@@H](C(C)C)OC1=O` [Valinomycin, valinomycin], the “fluorescent signal on K+ exposure (normalized to baseline)” value ([1]; valinomycin-treated null-lipoparticles, twelve replicates, microplate, mean+/−standard deviation, untreated 1.023+/−0.009) was 1.347+/−0.036.
With `NC12CC3CC(CC(C3)C1)C2` [amantadine] the “Hillslope of inhibition curve” value [5] was −0.71, the pIC50 [5] was 6.01 and the “mean change in fluorescence resulting from MES addition” value [5] was 314±206. The “H+ transport across VLP membranes (fluorescence)” value [5] was “abrogated the subsequent movement of H^+; also recorded: in the absence, but not in the presence of amantadine”, the pIC50 ([6]; other measures of M2 function, such as plaque assay, read-out: IC50 reported in the literature) was 5.00 to 6.00 and the “fluorescent signal (membrane potential response) on low pH challenge” value [10] was “attenuated the fluorescent signal in a dose-dependent fashion; also recorded: inhibited”. For the same compound, the “H+ transport fluorescence signal” value [7] was “inhibited the fluorescent response; also recorded: abrogated the subsequent movement of H^+; also recorded: completely abrogated”.
